Assay results from patent US8394355B2, “Use of UTP for the diagnosis of stenoses and other conditions of restricted blood flow” (P2 science Aps, priority 2009, dated 2013).
Values joined by “and” are separate entries in the source; they are usually repeats but may differ in a detail not shown here. Equal values may be shown once. Read-outs that look alike come from different tables or passages of the source.

Tests used:
[1] = system: coronary arteries in humans with coronary artery disease; test: FFR during continuous intracoronary infusion via microcatheter (Example 3); type: in vivo; conditions: individual patients, 320 μg/min
[2] = system: infarct area during acute myocardial infarction; test: ADP or UTP infusion during myocardial infarction in pigs (unpublished); type: in vivo; conditions: infused during acute myocardial infarction, unpublished results
Excerpt: This is clearly in contrast to previous findings, but is more clinically relevant as most cardiac patients are older. […] This conclusion is also supported by another study by the present inventor in pigs where ADP or UTP was infused during myocardial infarction. […] Therefore, the previous assumptions in patent application WO 2007/065437 relating to the regulation of purinergic receptor activity to modulate vascular tone, particularly for treating hemodynamic conditions by overriding vasoconstriction activity, which could potentially have clinical applications for treatment with UTP agonists or antagonists, is incorrect.

[3] = system: coronary arteries in humans with coronary artery disease; test: FFR during continuous intracoronary infusion via guiding catheter (Example 2); type: in vivo; design: key to lowest FFR level / difference in FFR between adenosine and UTP / FFR / FFR Mean: FFR = Pd/Pa (distal/proximal coronary pressure ratio); conditions: for adverse effects during IC continuous infusion / % of patients with FFR ≦ 0.75 / % of patients with FFR ≦ 0.8: guiding catheter study; for % of patients with FFR ≦ 0.75 / % of patients with FFR ≦ 0.8: 240 μg/min (n = 23); for lowest FFR level: lowest mean over the dose response curve, ± 2SEM, P<0.05
Method: The study was performed in 23 patients undergoing elective coronary arteriography (CAG) due to repetitive episodes of typical ischemic chest pain or in patients with recent Non-ST Elevated Myocardial Infarction (>2 days from entry into study). In eligible patients with uni- or multivessel coronary artery disease, lesions with stenosis of at least 50% of their diameter and that were thought to require PCI on the basis of angiographic appearance and clinical data were identified.
In the first part of the experiment, FFR and Coronary Flow (velocity, CFR) were measured after the induction of coronary hyperemia by a continuous intracoronary infusion of UTP (Jena Bioscience GmbH, Germany) and adenosine in random order in a guide catheter (5F catheter, Cordis Corp.). Two UTP doses of 240 and 360 μg/min were tested. UTP was prepared by dissolving 100 mg of UTP trisalt (Sigma Aldrich) in 50 ml isotonic NaCl. Of this 50 ml solution, 40 ml was filter sterilized and added to sterile NaCl solution to a final volume of 500 ml, providing a 0.16 mg/ml concentration. 8-10 50 ml syringes of this solution can be prepared (2 syringes per FFR study). 3 ml/min=480 μg/min=0.9 μmol/min. Subjects thus received either 1.5 ml/min of UTP infusion or 2.25 mL/min of UTP infusion for a total of 3 minutes each. Patients also received adenosine (Sigma Aldrich) in the same eqipotent concentration.
All measurements were performed on at least 2 separate occasions to achieve a reproducible result with a mean value calculated. After each measurement, care was taken that APV returned to baseline before the administration of the next dose. For all measurements using both drugs and both routes of administration, changes in heart rate, blood pressure, and ECG were recorded.
In the second part of the experiment, a full dose response curve was generated for a gradual incremental increase in continuous UTP infusion while both CFR and FFR were measured simultaneously prior to percutaneous coronary intervention (PCI). Hyperemia was induced at 80 μg/min of continuous intracoronary UTP and adenosine, and the flow reserve values were compared (Table 1).
In the third part of the experiment, both CFR and FFR were measured simultaneously after percutaneous coronary intervention (PCI). Hyperemia was induced by either 240 or 360 μg/min of continuous intracoronary UTP and equipotent adenosine, and the flow reserve values were in some patients compared with the hyperemic response of a complete, proximal coronary occlusion for 30 s.
FFR is defined as the ratio of hyperemic flow in a stenotic artery to the hyperemic flow in the same artery if there was no stenosis present. FFR therefore expresses maximum hyperemic blood flow in a stenotic vessel as a fraction of its normal value. FFR can be calculated from intracoronary pressure measurements obtained during maximal hyperemia by the following equation: FFR═Pd−Pv/Pa−Pv→Pd/Pa, where Pa is the mean proximal coronary pressure (mean aortic pressure), Pd is the mean distal coronary pressure, and Pv is the mean central venous pressure. The coronary flow (velocity) reserve is the ratio of maximum to baseline hyperemic coronary flow velocity and is used as a surrogate for CFR. Using the Volcano Combomap®, APV throughout the cardiac phase was measured and CFR calculated from APV(hyperemia)/APV(basal).

[4] = system: coronary arteries in humans with coronary artery disease; test: as above; type: in vivo; design: key: FFR = Pd/Pa (distal/proximal coronary pressure ratio); conditions: Example 5 summary; Ttest 0.0034 adenosine vs UTP
[5] = system: leg blood flow; conditions: cited from earlier work; for relative vasoactive potency (rank order): only for blood flows around 3.5 Lmin^−1
[6] = Kinetics of UTP in the circulation; type: in vivo; conditions: for half-life: in the circulation, read-out: terminal half-life (converted)
[7] = mean of six patients, 80 μg/min

| SMILES | adverse effects during IC continuous infusion [3] | % of patients with FFR ≦ 0.75 [3] | % of patients with FFR ≦ 0.8 [3] | lowest FFR level [3] | FFR Mean [3, 7] | FFR Mean ([3]; mean, 160 μg/min) | FFR Mean ([3]; mean, 240 μg/min) | FFR Mean ([3]; mean, 320 μg/min) | FFR Mean ([3]; mean, 400 μg/min) | FFR Mean [4] | relative vasoactive potency (rank order) [5] | other results |
| --- | --- | --- | --- | --- | --- | --- | --- | --- | --- | --- | --- | --- |
| O=c1ccn([C@@H]2O[C@H](COP(=O)(O)OP(=O)(O)OP(=O)(O)O)C(O)[C@@H]2O)c(=O)[nH]1 (stereo partly shown) [UTP, Uridine 5-triphosphate] | None of the UTP-treated patients in the current trial had chest pain, dyspnea, second or 3 degree A-V block or changes in systemic blood pressure and heart rate | 47% | 65% | 0.74±0.13 | 0.74 | 0.77 | 0.79 | 0.78 | 0.79 | 0.72 | 100 | FFR [1]: 0.90 (2×) and 0.89 and 0.72 and 0.77 and 0.86 and 0.56 and 0.69 and 0.84; effect on infarct area [2]: increased the infarct area; FFR in comparison to adenosine infusion ([3]; all 23 patients, IC 240 μg/min, p=0.003, FIG. 1): significantly decreased; time to induction of maximal hyperemia ([3]; all IC continuous infusion rates, versus adenosine): shorter; optimal dose for achieving maximal coronary hyperemia ([3]; guide catheter method): 80 to 400 µg/min; FFR ([3]; individual patients (row = patient no.), IC continuous infusion 80 μg/min, guide catheter): 0.73 and 0.79 and 0.88 and 0.56; FFR ([3]; individual patients, 160 μg/min): 0.90 and 0.73 and 0.79 and 0.86 and 0.56; FFR ([3]; individual patients, 240 μg/min): 0.89 (2×) and 0.73 and 0.79 and 0.87 and 0.55; FFR ([3]; individual patients, 320 μg/min): 0.90 and 0.89 and 0.72 and 0.77 and 0.86 and 0.56; FFR ([3]; individual patients, 400 μg/min): 0.90 and 0.92 and 0.56; difference in FFR between adenosine and UTP ([3]; standard deviation of 0.15-0.17, p=0.003): 0.05; blood flow increase, % of maximum in the leg during hard exercise ([5]; local infusion): 60%; half-life ([6]; blood (the circulation)): ~20 s; time to peak ([6]; in vivo): 5 s; half-life ([6]; in vivo): 20 s |
| Nc1ncnc2c1ncn2[C@@H]1O[C@H](CO)[C@@H](O)[C@H]1O [adenosine] | most patients felt uncomfortable chest pain and 2 patients had 3 degree A-V block | 39% | 43% | 0.81±0.11 | 0.86 | 0.81 | 0.81 | 0.82 | 0.82 | 0.77 | 5.8 | FFR ([1]; listed as ADO): 0.79 and 0.96 and 0.54 and 0.70 (2×) and 0.95 and 0.86 and 1.02 and 0.89; FFR ([3]; individual patients (row = patient no.), IC continuous infusion 80 μg/min, guide catheter, listed as ADO): 0.83 and 0.95 and 0.76 and 0.88; FFR ([3]; individual patients, 160 μg/min, listed as ADO): 0.80 and 0.95 and 0.60 and 0.96 and 0.75; FFR ([3]; individual patients, 240 μg/min, listed as ADO): 0.81 and 0.94 and 0.60 and 0.87 and 0.91 and 0.71; FFR ([3]; individual patients, 320 μg/min, listed as ADO): 0.79 and 0.96 and 0.54 and 1.02 and 0.89 and 0.70; FFR ([3]; individual patients, 400 μg/min, listed as ADO): 0.56 and 1.01 and 0.89 |
